Test results: paper PMC3780361 (Bioorganic & medicinal chemistry, 2013)
In brackets after ≈: the same amount, converted by molar mass.

Assays:
physchem = details: pH 7.4
in vitro = details: monkey; for IC50 at 72 h: Cytotoxicity IC50
M. tb H37Rv [1] = details: secondary-linked 1 vs tertiary-linked 2; cited from earlier work
[2] = Cytotoxicity determination; details: monkey, Cytotoxicity IC50, VERO cell line, MTT
[3] = Permeability determination; details: PAMPA, pH 7.4
recombinant human sEH = biological target: T1, recombinant human sEH (Homo sapiens, UniProt P34913); experiment: Human soluble epoxide hydrolase assay; assay type: biochemical
T1 sequence (P34913 1-555): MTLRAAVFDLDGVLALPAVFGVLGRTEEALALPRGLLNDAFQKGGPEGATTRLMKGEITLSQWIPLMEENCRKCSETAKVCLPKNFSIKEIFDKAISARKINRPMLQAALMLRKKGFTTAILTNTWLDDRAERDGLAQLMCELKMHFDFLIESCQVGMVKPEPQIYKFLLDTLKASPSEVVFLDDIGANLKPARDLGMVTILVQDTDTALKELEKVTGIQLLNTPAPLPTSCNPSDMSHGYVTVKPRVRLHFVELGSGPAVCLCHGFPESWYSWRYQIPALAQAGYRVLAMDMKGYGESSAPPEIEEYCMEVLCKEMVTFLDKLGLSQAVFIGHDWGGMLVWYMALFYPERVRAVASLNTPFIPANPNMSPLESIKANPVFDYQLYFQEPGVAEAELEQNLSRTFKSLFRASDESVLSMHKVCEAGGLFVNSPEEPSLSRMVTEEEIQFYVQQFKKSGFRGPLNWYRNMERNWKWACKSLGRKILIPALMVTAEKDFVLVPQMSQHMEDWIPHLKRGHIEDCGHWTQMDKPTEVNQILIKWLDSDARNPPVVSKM

M. tb H37Rv [4] = experiment: M. tb MIC determination by microbroth dilution; assay type: cell-based; details: Mycobacterium tuberculosis, 168 h, read-out: M. tb MIC

CC(C)c1nnc(NC(=O)NC23CC4CC(CC(C4)C2)C3)o1 [Compound 37, 1-(1-adamantyl)-3-(5-isopropyl-1,3,4-oxadiazol-2-yl)urea]
solubility at 18 h (physchem): ~0.01 mg/mL (≈ 32.9 µM)

Cc1nnc(NC(=O)NC23CC4CC(CC(C4)C2)C3)o1 [Compound 36, 1-(1-adamantyl)-3-(5-methyl-1,3,4-oxadiazol-2-yl)urea]
solubility at 18 h (physchem): ~0.01 mg/mL (≈ 36.2 µM)

Cc1cc(NC(=O)NC23CC4CC(CC(C4)C2)C3)no1 [Compound 23, 1-(1-adamantyl)-3-(5-methylisoxazol-3-yl)urea]
solubility at 18 h (physchem): ~0.025 mg/mL (≈ 90.8 µM)

Cc1cc(NC(=O)NC2C3CC4CC(C3)CC2C4)no1 (stereo not drawn) [Compound 47, 1-(2-adamantyl)-3-(5-methylisoxazol-3-yl)urea]
selectivity ratio at 72 h (in vitro): > 8
IC50 at 72 h (in vitro): > 48 mg/L
solubility at 18 h (physchem): ~0.025 mg/mL (≈ 90.8 µM)

O=C(Nc1ccc(F)c(F)c1F)NC1C2CC3CC(C2)CC1C3 (stereo not drawn) [Compound 1]
Fold more potent than 2 (anti-TB activity) (M. tb H37Rv [1]): 40 fold

O=C(Nc1nnc(C2CC2)o1)NC1C2CC3CC(C2)CC1C3 (stereo not drawn) [Compound 50, 1-(2-adamantyl)-3-(5-cyclopropyl-1,3,4-oxadiazol-2-yl)urea]
IC50 at 72 h [2]: > 100 mg/L

CCCSc1ccc2nc(NC(=O)OC)[nH]c2c1 [albendazole]
Papp at 0.5 hr, 50 µM [3]: ~4410 nm/s

CCn1nc(NC(=O)NC2C3CC4CC(C3)CC2C4)cc1C (stereo not drawn) [Compound 52, 1-(2-adamantyl)-3-(1-ethyl-5-methylpyrazol-3-yl)urea]
IC50 at 72 h [2]: > 100 mg/L

Nc1ccc(S(=O)(=O)c2ccc(NC(=O)NC34CC5CC(CC(C5)C3)C4)cc2)cc1 [Compound 13, 1-(1-adamantyl)-3-(4-((4-aminophenyl)sulfonyl)phenyl)urea]
IC50 (recombinant human sEH): 0.7 nM
selectivity ratio at 72 h (in vitro): 23
IC50 at 72 h (in vitro): > 100 mg/L
solubility at 18 h (physchem): 0.0009 ± 0.0001 mg/mL (≈ 2.11 µM)
MIC (M. tb H37Rv [4]): 6.25 mg/L (≈ 14.7 µM)
